Data from patent US20070232572A1, “Chemical derivatives as antitelomerase agents which bind specifically to the G-quadruplex DNA structures and their application as a specific anticancer agent” (priority 2003, published 2007).
Like-named read-outs stand apart in the source and are kept apart here.

Assays:
[1] = system: oligonucleotide capable of forming a G-quadruplex structure (G-rich strand, repetitive units of human telomeric DNA); assay: Test of affinity No. 1 (alpha screen): inhibition of pairing of a G-quadruplex-forming oligonucleotide with its complementary strand, luminescence; format: binding; conditions: 50 mM TRIS-HCl pH 7.4, 100 mM KCl, 0.1% BSA; telomeric strand vs complementary strand; read-out: Affinity/selectivity G4 Test 1 (alpha screen) Affinity IC50
From the text: The principle of this test uses the activation of “acceptor” beads by an oxygen singlet emitted by “donor” beads excited by laser when the “acceptor” and “donor” beads are in proximity. This test was developed by Packard Bioscience under the name Amplified Luminescent Proximity Homogeneous Assay or ALPHA screen.
The “donor” beads are conjugated with streptavidin and the acceptor beads with an anti-digoxigenin antibody (catalog reference 6760604). A DNA strand, in this case the telomeric strand, is coupled at its 5′ end to biotin so as to be able to bind to the “donor” beads, while the complementary strand is coupled to digoxigenin so as to be able to bind to the “acceptor” beads. During the pairing of the telomeric strand with its complementary strand, the beads are placed in proximity and a luminescence signal is then emitted at a wavelength of 520-620 nm.
The oligonucleotides used in the experiments were synthesized by Perkin Elmer Life Sciences (Finland). […] The complementary strand has the sequence GGT-TTA-AAA-AAT-TTG-CCC-TAA-CCC-TAA-CCC-TAA-CCC-T. The biotin or the digoxigenin are added to the 5′ end of the oligonucleotides.
The experiments are carried out in 50 mM TRIS-HCl buffer pH 7.4 containing 100 mM KCl and 0.1% BSA.
The measurements are carried out with an Alphaquest microplate analyzer (Fusion α) from Packard Biosciences.
The experiments are carried out in 96-well plates (½ wells). An oligonucleotide stock solution at the concentration of 25 nM in the buffer described above is prepared. 10 μl of this solution are distributed into the wells. 10 μl of the test product at different concentrations, prepared in the same buffer containing 0.6% DMSO, are then added. 10 μl of buffer+0.6% DMSO are distributed into the control wells. The samples are left to incubate for 15 minutes at room temperature. After this incubation time, 10 μl of the complementary strand at the concentration of 25 nM and 20 μl of a solution containing 2 types of bead diluted beforehand to 50 mg/ml are added to the wells. The plates are incubated at room temperature for 2 hours before reading. […]

[2] = system: any oligonucleotide (non-G-quadruplex control sequence) with its complementary strand; assay: Test of selectivity No. 1 (alpha screen): inhibition of pairing of any oligonucleotide with its complementary strand, luminescence; format: binding; conditions: control oligonucleotide pairing versus G4 oligonucleotide pairing
From the text: The test used is the same as that described above. Only the oligonucleotides are different, the telomeric strand being replaced by an oligonucleotide having the following sequence: G-GTT-TAA-AAT-AAT-TGA-GGC-TTA-CCG-TTA-CCG-TTA-CGG biotinylated at the 5′ end. The complementary strand has the sequence: 5′-GGT-TTA-AAA-AAT-TTG-CGG-TAA-CGG-TAA-CGG-TAA-GCC-T labeled with digoxigenin at the 5′ end. If the test product has affinity for the biotinylated DNA sequence, the pairing of the complementary strand will be prevented and the signal obtained will be minimal. In the absence of product or if the latter has no affinity for this DNA, the pairing will occur and the signal will be maximum.

[3] = biological target: oligonucleotide capable of forming a monomeric G-quadruplex structure; assay: Test of affinity No. 2: dissociation constant of the complex with a monomeric G-quadruplex oligonucleotide, by fluorescence; format: binding; conditions: read-out: Affinity/selectivity G4 Test 2 (Kd by fluorescence) Kd
Experimental: Test of affinity No. 2: Measurement of the dissociation constant, expressed in μM, of the complex between a product of the invention and an oligonucleotide, capable of forming a monomeric G-guadruplex structure, by a fluorescence method according to the experimental protocol is described below.
The titrations are carried out at 20° C. in a quartz cuvette having a useful volume of 3 ml and a cross section of 10×10 mm, placed in the thermostated compartment of the Spex Fluorolog 3 fluorimeter (Jobin-Yvon). […] To a 0.1 μM solution of compound are added increasing concentrations of nucleic acids. After an equilibration time of 3 minutes, a fluorescence emission spectrum is recorded for each point, using slits of 5 nm and an excitation wavelength of 340 nm. Each aliquot represents an additional volume of 3 microliters. The effects of dilution are corrected at the end of the experiment after integrating the emission signal. The curves representing the emission intensity as a function of the nucleic acid concentration are then analyzed and fitted with the Kaleidagraph 3.52 software for Macintosh.

[4] = system: any double-stranded oligonucleotide; assay: Test of selectivity No. 2: dissociation constant of the complex with a double-stranded oligonucleotide, by fluorescence; format: binding; conditions: DNA double strand versus oligonucleotide G4
Experimental: Test of selectivity No. 2: Measurement of the dissociation constant, expressed in μM, of the complex between a product of the invention and any double-stranded oligonucleotide, by a fluorescence method according to the experimental protocol is described below.
The titrations are carried out according to a protocol identical to that used for the titrations of the preceding test.

[5] = system: G-quadruplex oligonucleotide GGGTTAGGGTTAGGGTTAGGG (3.5 repeats of the human telomeric unit), FAM+DABCYL; assay: Test of affinity No. 3: stabilization of the G-quadruplexes, fluorescence Tm; format: binding; conditions: test product 1 μM, oligonucleotide 0.2 μM, 0.1 M LiCl, 10 mM cacodylate pH 7.6; reference Tm 44° C.
From the text: Test of affinity No. 3: Measurement of the stabilization of the G-guadruplexes Tm, expressed in ° C., by a method using the formation of a complex with fluorescein of which the experimental protocol is described below.
All the oligonucleotides, modified or otherwise, were synthesized by Eurogentec S A, Seraing, Belgium. The oligonucleotide FAM+DABCYL has the catalog reference OL-0371-0802. It has the sequence: […] corresponding to 3.5 repeats of the human telomeric unit (strand rich in G). The fluorescein is attached to the 5′ end, the DABCYL to the 3′ end, by the chemical arms described by Eurogentec. An oligonucleotide FAM+TAMRA may also be used. The concentration of the samples is checked by spectrophotometry, by recording the absorbance spectrum between 220 and 700 nm and using the molar extinction coefficient provided by the supplier.
All the experiments were carried out in a 10 mM sodium cacodylate buffer pH 7.6 containing 0.1 M lithium chloride (or sodium chloride). The absence of fluorescent contamination in the buffer was checked beforehand. The fluorescent oligonucleotide is added at the final concentration of 0.2 μM.
All the measurements of fluorescence were carried out on a Spex Fluorolog DM1B or Fluoromax 3 apparatus, using an excitation line width of 1.8 nm and an emission line width of 4.5 or 5 nm. The samples are placed in a microquartz cuvette of 0.2×1 cm. […] The oligonucleotide alone was analyzed at 20, 30, 40, 50, 60, 70 and 80° C. The emission spectra are recorded using an excitation wavelength of 470 nm. The excitation spectra are recorded using either 515 or 588 nm as emission wavelength. […] A high extinction (80-90%) of the fluorescence of fluorescein at room temperature is observed, in agreement with an intramolecular folding of the oligonucleotide at 20° C. in the form of a G-quadruplex, which induces juxtaposition of its 5′ and 3′ ends which are respectively linked to fluorescein and to DABCYL. This juxtaposition causes an already-described phenomenon of extinction of fluorescence which is used for “Molecular Beacons”. […]

[6] = system: human telomerase (extract of A549 cells), oligonucleotide TSG4; assay: Antitelomerase activity by the TRAP-G4 assay; format: biochemical; conditions: formation of the TSG4-CXext band; read-out: Inhibition of telomerase IC50 (IC50 TRAP-G4)
Experimental: The extract is stored at -80° C.

[7] = 20° C., sodium cacodylate pH 7.2, 100 mM potassium chloride (K+)

C[n+]1cccc2cc(NC(=O)c3cccc(C(=O)Nc4ccc5c(ccc[n+]5C)c4)n3)ccc21.[I-].[I-] [Example 1, bis[(1-methylquinolinio-6-yl)amido]-2,6-pyridinedicarboxylic acid diiodide]
IC50 [1]: 160 nM
Affinity/selectivity G4 Test 1 (alpha screen) Selectivity factor [2]: >20
Kd [3, 7]: 7 nM
Affinity/selectivity G4 Test 2 (Kd by fluorescence) Selectivity factor [4]: >>100
Affinity G4 Test 3 Delta Tm [5]: 26 °C
IC50 [6]: 450 nM

C[n+]1cccc2cc(NC(=O)c3cccc(C(=O)Nc4cc5ccccc5[n+](C)c4)n3)ccc21.[I-].[I-] [Example 9, 2-[(1-methylquinolinio-6-yl)amido]-6-[(1-methylquinolinio-3-yl)amido]-2,6-pyridinedicarboxylic acid iodide]
IC50 [1]: 60 nM
Affinity/selectivity G4 Test 1 (alpha screen) Selectivity factor [2]: >50
Kd [3, 7]: 0.7 nM
Kd ([3]; Na+): 3.2 nM
Affinity/selectivity G4 Test 2 (Kd by fluorescence) Selectivity factor [4]: >1000
Affinity G4 Test 3 Delta Tm [5]: 21 °C
IC50 [6]: 300 nM

C[n+]1cccc2cc(NC(=O)c3cccc(C(=O)NCC[N+]4(C)CCCCC4)n3)ccc21.[I-].[I-] [Example 12, 2-[(1-methylquinolinio-6-yl)amido]-6-[2(-1-methylpiperidinio-1-yl)ethylamido]-2,6-pyridinedicarboxylic acid diiodide]
IC50 [1]: 1060 nM
Affinity/selectivity G4 Test 1 (alpha screen) Selectivity factor [2]: >3
Affinity G4 Test 3 Delta Tm [5]: 12.1 °C
IC50 [6]: 1500 nM
